# Source: patent publication US20240174679A1, “HETEROAROYL AMIDES AS LRRK2 INHIBITORS, PHARMACEUTICAL COMPOSITIONS, AND USES THEREOF” (MERCK SHARP & DOHME LLC, priority 2021, published 2024)
# Molecular target: GST tagged truncated human mutant G2019S LRRK2 (Homo sapiens (Human), UniProt Q5S007, G2019S)
# Assay: LRRK2 Km ATP LanthaScreen Assay
# Format: biochemical
# Conditions: 134 μM ATP (Km ATP), LRRKtide substrate, negative log of mean IC50 (molar)
# Outline: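 Truncated GST-tagged G2019S LRRK2 (1.25 nM enzyme solution) was preincubated with compound for 15 min at rt, then reacted for 90 min with fluorescein-LRRKtide and 134 μM ATP (Km) in Tris pH 8.5/MgCl2 buffer. After an EDTA stop, TR-FRET used a Tb anti-pERM antibody (520/495 nm ratio). IC50 came from a 4-parameter fit and is reported as pIC50, mean of several runs.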
# Chain of GST tagged truncated human mutant G2019S LRRK2 (Q5S007 970-2527 G2019S): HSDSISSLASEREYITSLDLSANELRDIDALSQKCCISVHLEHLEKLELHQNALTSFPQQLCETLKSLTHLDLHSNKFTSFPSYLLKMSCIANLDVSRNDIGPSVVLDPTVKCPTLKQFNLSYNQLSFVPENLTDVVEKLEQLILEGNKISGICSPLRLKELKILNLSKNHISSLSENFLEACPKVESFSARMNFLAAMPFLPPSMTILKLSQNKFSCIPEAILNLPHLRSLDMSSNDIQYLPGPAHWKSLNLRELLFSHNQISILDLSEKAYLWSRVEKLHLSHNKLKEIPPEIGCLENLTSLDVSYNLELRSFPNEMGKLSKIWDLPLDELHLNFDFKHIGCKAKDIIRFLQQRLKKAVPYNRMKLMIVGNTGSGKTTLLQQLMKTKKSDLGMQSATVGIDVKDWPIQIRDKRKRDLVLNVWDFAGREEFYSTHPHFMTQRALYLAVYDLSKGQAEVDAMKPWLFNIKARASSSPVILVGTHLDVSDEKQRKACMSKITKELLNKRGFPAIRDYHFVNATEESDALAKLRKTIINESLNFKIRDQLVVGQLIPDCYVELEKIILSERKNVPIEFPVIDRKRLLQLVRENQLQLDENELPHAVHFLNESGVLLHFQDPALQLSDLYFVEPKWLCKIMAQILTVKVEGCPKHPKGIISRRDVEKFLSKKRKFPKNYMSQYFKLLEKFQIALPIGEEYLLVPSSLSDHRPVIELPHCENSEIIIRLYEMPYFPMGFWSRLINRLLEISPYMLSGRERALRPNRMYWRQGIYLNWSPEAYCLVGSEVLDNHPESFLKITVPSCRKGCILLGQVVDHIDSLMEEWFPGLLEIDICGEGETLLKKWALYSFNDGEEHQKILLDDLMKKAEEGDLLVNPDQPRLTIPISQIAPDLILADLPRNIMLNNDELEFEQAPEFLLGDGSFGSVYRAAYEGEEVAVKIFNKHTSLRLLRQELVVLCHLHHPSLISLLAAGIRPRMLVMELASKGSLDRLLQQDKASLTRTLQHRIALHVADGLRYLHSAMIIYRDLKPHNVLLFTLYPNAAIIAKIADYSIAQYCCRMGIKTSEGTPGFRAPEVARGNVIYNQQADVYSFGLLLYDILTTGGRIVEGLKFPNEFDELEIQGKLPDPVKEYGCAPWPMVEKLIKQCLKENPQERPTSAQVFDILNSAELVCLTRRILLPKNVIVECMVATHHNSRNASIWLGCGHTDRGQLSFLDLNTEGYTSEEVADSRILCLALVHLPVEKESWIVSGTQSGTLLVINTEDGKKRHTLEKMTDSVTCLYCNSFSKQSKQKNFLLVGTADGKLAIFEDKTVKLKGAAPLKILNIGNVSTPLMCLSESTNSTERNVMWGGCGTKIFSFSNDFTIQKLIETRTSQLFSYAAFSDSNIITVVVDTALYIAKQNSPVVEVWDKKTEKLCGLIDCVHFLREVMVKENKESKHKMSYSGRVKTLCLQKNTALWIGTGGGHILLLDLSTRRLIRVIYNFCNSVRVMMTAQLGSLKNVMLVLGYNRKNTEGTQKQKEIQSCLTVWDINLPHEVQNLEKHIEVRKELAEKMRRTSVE
row,SMILES,LRRK2 pIC50
1,"Cc1cc(-n2cc(NC(=O)c3csc(-c4cn[nH]c4)n3)cn2)cc(C)n1 [Example 8-4, N-[1-(2,6-dimethylpyridin-4-yl)-1H-pyrazol-4-yl]-2-(1H-pyrazol-4-yl)-1,3-thiazole-4-carboxamide]",7.82
2,"Cn1cc(-c2cccc(C(=O)Nc3cnn(C4CCC4)c3)n2)cn1 [Example 9-1, N-(1-Cyclobutyl-1H-pyrazol-4-yl)-6-(1-methyl-1H-pyrazol-4-yl)picolinamide]",7.27
3,"O=C(Nc1cnn(CC2CCC2)c1)c1cccc(-c2cncnc2)n1 [Example 9-2, N-[1-(cyclobutylmethyl)-1H-pyrazol-4-yl]-6-pyrimidin-5-ylpyridine-2-carboxamide]",5.74
4,"O=C(Nc1cnn(C2CCC2)c1)c1csc(-c2cnn3c2CCC3)n1 [Example 9-3, N-(1-cyclobutyl-1H-pyrazol-4-yl)-2-(5,6-dihydro-4H-pyrrolo[1,2-b]pyrazol-3-yl)-1,3-thiazole-4-carboxamide]",8.01
5,"CCn1cc(-c2nc(C(=O)Nc3cnn(C4CCC4)c3)cs2)cn1 [Example 9-4, N-(1-cyclobutyl-1H-pyrazol-4-yl)-2-(1-ethyl-1H-pyrazol-4-yl)-1,3-thiazole-4-carboxamide]",7.41
6,"O=C(Nc1cnn(CC2CCC2)c1)c1cccc(-c2ccoc2)n1 [Example 9-5, N-[1-(cyclobutylmethyl)-1H-pyrazol-4-yl]-6-furan-3-ylpyridine-2-carboxamide]",5.79
7,"O=C(Nc1cnn(CC2CCC2)c1)c1cccc(-c2cnn(Cc3ccncc3)c2)n1 [Example 9-6, N-[1-(cyclobutylmethyl)-1H-pyrazol-4-yl]-6-[1-(pyridin-4-ylmethyl)-1H-pyrazol-4-yl]pyridine-2-carboxamide]",6.18
8,"CC1COc2c(-c3cccc(C(=O)Nc4cnn(CC5CCC5)c4)n3)cnn2C1 (centres unmarked) [Example 9-7, N-[1-(cyclobutylmethyl)-1H-pyrazol-4-yl]-6-(6-methyl-6,7-dihydro-5H-pyrazolo[5,1-b][1,3]oxazin-3-yl)pyridine-2-carboxamide]",6.87
9,"O=C(Nc1cnn(CC2CCC2)c1)c1cccc(-c2cnn(Cc3ccccn3)c2)n1 [Example 9-8, N-[1-(cyclobutylmethyl)-1H-pyrazol-4-yl]-6-[1-(pyridin-2-ylmethyl)-1H-pyrazol-4-yl]pyridine-2-carboxamide]",6.54
10,"Cn1cnc(-c2nc(C(=O)Nc3cnn(C4CCC4)c3)cs2)c1 [Example 9-9, N-(1-cyclobutyl-1H-pyrazol-4-yl)-2-(1-methyl-1H-imidazol-4-yl)-1,3-thiazole-4-carboxamide]",8.04
11,"O=C(Nc1cnn(CC2CCC2)c1)c1cccc(-c2cnn3c2COCC3)n1 [Example 9-10, N-[1-(cyclobutylmethyl)-1H-pyrazol-4-yl]-6-(6,7-dihydro-4H-pyrazolo[5,1-c][1,4]oxazin-3-yl)pyridine-2-carboxamide]",7.76
12,"O=C(Nc1cnn(CC2CCC2)c1)c1cccc(-c2ccc(F)cc2F)n1 [Example 9-11, N-[1-(cyclobutylmethyl)-1H-pyrazol-4-yl]-6-(2,4-difluorophenyl) pyridine-2-carboxamide]",5.63
13,"COCCn1cc(-c2cccc(C(=O)Nc3cnn(CC4CCC4)c3)n2)cn1 [Example 9-12, N-[1-(cyclobutylmethyl)-1H-pyrazol-4-yl]-6-[1-(2-methoxyethyl)-1H-pyrazol-4-yl]pyridine-2-carboxamide]",6.95
14,"O=C(Nc1cnn(CC2CCC2)c1)c1cccc(-c2cnn3c2CCCC3)n1 [Example 9-13, N-[1-(cyclobutylmethyl)-1H-pyrazol-4-yl]-6-(4,5,6,7-tetrahydropyrazolo [1,5-a]pyridin-3-yl)pyridine-2-carboxamide]",7.68
15,"O=C(Nc1cnn(C2CCC2)c1)c1csc(-c2cc[nH]n2)n1 [Example 9-14, N-(1-cyclobutyl-1H-pyrazol-4-yl)-2-(1H-pyrazol-3-yl)-1,3-thiazole-4-carboxamide]",7.41
16,"O=C(Nc1cnn(CC2CCC2)c1)c1cccc(-c2cnsc2)n1 [Example 9-15, N-[1-(cyclobutylmethyl)-1H-pyrazol-4-yl]-6-isothiazol-4-ylpyridine-2-carboxamide]",6.66
17,"O=C(Nc1cnn(CC2CCC2)c1)c1cccc(-c2ccncc2)n1 [Example 9-16, N-[1-(cyclobutylmethyl)-1H-pyrazol-4-yl]-2,4′-bipyridine-6-carboxamide]",5.04
18,"O=C(Nc1cnn(C2CCC2)c1)c1csc(-c2cnn(C(F)F)c2)n1 [Example 9-17, N-(1-cyclobutyl-1H-pyrazol-4-yl)-2-[1-(difluoromethyl)-1H-pyrazol-4-yl]-1,3-thiazole-4-carboxamide]",7.50
19,"Cc1[nH]ncc1-c1nc(C(=O)Nc2cnn(C3CCC3)c2)cs1 [Example 9-18, N-(1-cyclobutyl-1H-pyrazol-4-yl)-2-(5-methyl-1H-pyrazol-4-yl)-1,3-thiazole-4-carboxamide]",7.59

row,SMILES,LRRK2 pIC50
1,"O=C(Nc1cnn(CC2CCC2)c1)c1cccc(-c2ccnnc2)n1 [Example 9-19, N-[1-(cyclobutylmethyl)-1H-pyrazol-4-yl]-6-pyridazin-4-ylpyridine-2-carboxamide]",5.22
2,"Cn1nccc1-c1cccc(C(=O)Nc2cnn(CC3CCC3)c2)n1 [Example 9-20, N-[1-(cyclobutylmethyl)-1H-pyrazol-4-yl]-6-(1-methyl-1H-pyrazol-5-yl)pyridine-2-carboxamide]",5.07
3,"O=C(Nc1cnn(C2CCC2)c1)c1csc(-c2cnn3c2OCCC3)n1 [Example 9-21, N-(1-cyclobutyl-1H-pyrazol-4-yl)-2-(6,7-dihydro-5H-pyrazolo[5,1-b][1,3]oxazin-3-yl)-1,3-thiazole-4-carboxamide]",8.08
4,"Cn1ccc(-c2cccc(C(=O)Nc3cnn(CC4CCC4)c3)n2)n1 [Example 9-22, N-[1-(cyclobutylmethyl)-1H-pyrazol-4-yl]-6-(1-methyl-1H-pyrazol-3-yl)pyridine-2-carboxamide]",6.53
5,"Cn1cc(-c2nccc(C(=O)Nc3cnn(C4CCC4)c3)n2)cn1 [Example 9-23, N-(1-cyclobutyl-1H-pyrazol-4-yl)-2-(1-methyl-1H-pyrazol-4-yl)pyrimidine-4-carboxamide]",7.47
6,"O=C(Nc1cnn(CC2CCC2)c1)c1cccc(-c2cccnc2F)n1 [Example 9-24, N-[1-(cyclobutylmethyl)-1H-pyrazol-4-yl]-2′-fluoro-2,3′-bipyridine-6-carboxamide]",7.16
7,"Cn1cc(-c2cccc(C(=O)Nc3cnn(CC4CCC4)c3)n2)cn1 [Example 9-25, N-[1-(cyclobutylmethyl)-1H-pyrazol-4-yl]-6-(1-methyl-1H-pyrazol-4-yl)pyridine-2-carboxamide]",7.38
8,"Cc1n[nH]c(C)c1-c1cccc(C(=O)Nc2cnn(CC3CCC3)c2)n1 [Example 9-26, N-[1-(cyclobutylmethyl)-1H-pyrazol-4-yl]-6-(3,5-dimethyl-1H-pyrazol-4-yl)pyridine-2-carboxamide]",6.09
9,"O=C(Nc1cnn(C2CCC2)c1)c1csc(-c2cnn3c2CCCC3)n1 [Example 9-27, N-(1-cyclobutyl-1H-pyrazol-4-yl)-2-(4,5,6,7-tetrahydropyrazolo [1,5-a]pyridin-3-yl)-1,3-thiazole-4-carboxamide]",8.25
10,"Cn1cc(-c2nc(C(=O)Nc3cnn(C4CCC4)c3)cs2)cn1 [Example 9-28, N-(1-cyclobutyl-1H-pyrazol-4-yl)-2-(1-methyl-1H-pyrazol-4-yl)-1,3-thiazole-4-carboxamide]",7.85
11,"N#Cc1cccc(-c2cccc(C(=O)Nc3cnn(CC4CCC4)c3)n2)c1 [Example 9-29, 6-(3-cyanophenyl)-N-[1-(cyclobutylmethyl)-1H-pyrazol-4-yl]pyridine-2-carboxamide]",5.51
12,"COc1ccncc1-c1cccc(C(=O)Nc2cnn(CC3CCC3)c2)n1 [Example 9-30, N-[1-(cyclobutylmethyl)-1H-pyrazol-4-yl]-4′-methoxy-2,3′-bipyridine-6-carboxamide]",6.76
13,"O=C(Nc1cnn(CC2CCC2)c1)c1cccc(-c2csc3ccccc23)n1 [Example 9-31, 6-(1-benzothiophen-3-yl)-N-[1-(cyclobutylmethyl)-1H-pyrazol-4-yl]pyridine-2-carboxamide]",5.18
14,"Cn1ccc(-c2cccc(C(=O)Nc3cnn(CC4CCC4)c3)n2)c1 [Example 9-32, N-[1-(cyclobutylmethyl)-1H-pyrazol-4-yl]-6-(1-methyl-1H-pyrrol-3-yl)pyridine-2-carboxamide]",6.59
15,"O=C(Nc1cnn(CC2CCC2)c1)c1cccc(-c2cnn(C(F)F)c2)n1 [Example 9-33, N-[1-(cyclobutylmethyl)-1H-pyrazol-4-yl]-6-[1-(difluoromethyl)-1H-pyrazol-4-yl]pyridine-2-carboxamide]",6.75
16,"O=C(Nc1cnn(CC2CCC2)c1)c1cccc(-c2cccnc2)n1 [Example 9-34, N-[1-(cyclobutylmethyl)-1H-pyrazol-4-yl]-2,3′-bipyridine-6-carboxamide]",6.90
17,"O=C(Nc1cnn(CC2CCC2)c1)c1cccc(-c2cnn(CCN3CCOCC3)c2)n1 [Example 9-35, N-[1-(cyclobutylmethyl)-1H-pyrazol-4-yl]-6-[1-(2-morpholin-4-ylethyl)-1H-pyrazol-4-yl]pyridine-2-carboxamide]",5.32
18,"O=C(Nc1cnn(CC2CCC2)c1)c1cccc(-c2cnn(Cc3cccnc3)c2)n1 [Example 9-36, N-[1-(cyclobutylmethyl)-1H-pyrazol-4-yl]-6-[1-(pyridin-3-ylmethyl)-1H-pyrazol-4-yl]pyridine-2-carboxamide]",6.90
19,"Cn1cc(-c2cccc(C(=O)Nc3cnn(C4CCC4)c3)c2F)cn1 [Example 9-38, N-(1-cyclobutyl-1H-pyrazol-4-yl)-2-fluoro-3-(1-methyl-1H-pyrazol-4-yl)benzamide]",7.10
